According to ChEMBL document CHEMBL3991601, “The target landscape of clinical kinase drugs” (Science, 2017):
Activity calls are given as the source filed them. For most assays here, no stated cut-off is given here; in the data, actives have a measured Kd and inactives only a lower limit.

Columns and labels:
[1] = target: Wee1-like protein kinase (Homo sapiens, UniProt P30291)
[2] = target: T1, Glycine--tRNA ligase (Homo sapiens, UniProt P41250)
T1 sequence (P41250 whole entry): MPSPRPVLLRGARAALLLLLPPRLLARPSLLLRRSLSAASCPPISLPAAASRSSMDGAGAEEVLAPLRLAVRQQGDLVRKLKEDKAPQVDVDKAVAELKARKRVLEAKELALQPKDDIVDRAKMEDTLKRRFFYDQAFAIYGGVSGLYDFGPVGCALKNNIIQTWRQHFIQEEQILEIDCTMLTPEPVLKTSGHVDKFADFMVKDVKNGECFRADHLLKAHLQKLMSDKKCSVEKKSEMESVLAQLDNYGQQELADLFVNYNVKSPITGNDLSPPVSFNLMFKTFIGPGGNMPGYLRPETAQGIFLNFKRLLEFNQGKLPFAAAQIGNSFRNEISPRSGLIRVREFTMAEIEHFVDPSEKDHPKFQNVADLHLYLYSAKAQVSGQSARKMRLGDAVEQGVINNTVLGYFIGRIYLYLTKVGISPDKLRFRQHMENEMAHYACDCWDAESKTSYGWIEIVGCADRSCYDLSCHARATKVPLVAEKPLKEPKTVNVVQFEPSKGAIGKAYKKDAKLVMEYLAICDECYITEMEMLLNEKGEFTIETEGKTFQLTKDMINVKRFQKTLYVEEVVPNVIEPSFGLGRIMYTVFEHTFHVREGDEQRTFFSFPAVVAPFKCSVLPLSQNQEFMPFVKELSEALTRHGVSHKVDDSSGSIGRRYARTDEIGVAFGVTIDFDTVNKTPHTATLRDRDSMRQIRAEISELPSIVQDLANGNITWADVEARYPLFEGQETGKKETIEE

[3] = target: Casein kinase II subunit alpha' (Homo sapiens, UniProt P19784)
[4] = target: T2, Tyrosine-protein kinase Tec (Homo sapiens, UniProt P42680)
T2 sequence (P42680 whole entry): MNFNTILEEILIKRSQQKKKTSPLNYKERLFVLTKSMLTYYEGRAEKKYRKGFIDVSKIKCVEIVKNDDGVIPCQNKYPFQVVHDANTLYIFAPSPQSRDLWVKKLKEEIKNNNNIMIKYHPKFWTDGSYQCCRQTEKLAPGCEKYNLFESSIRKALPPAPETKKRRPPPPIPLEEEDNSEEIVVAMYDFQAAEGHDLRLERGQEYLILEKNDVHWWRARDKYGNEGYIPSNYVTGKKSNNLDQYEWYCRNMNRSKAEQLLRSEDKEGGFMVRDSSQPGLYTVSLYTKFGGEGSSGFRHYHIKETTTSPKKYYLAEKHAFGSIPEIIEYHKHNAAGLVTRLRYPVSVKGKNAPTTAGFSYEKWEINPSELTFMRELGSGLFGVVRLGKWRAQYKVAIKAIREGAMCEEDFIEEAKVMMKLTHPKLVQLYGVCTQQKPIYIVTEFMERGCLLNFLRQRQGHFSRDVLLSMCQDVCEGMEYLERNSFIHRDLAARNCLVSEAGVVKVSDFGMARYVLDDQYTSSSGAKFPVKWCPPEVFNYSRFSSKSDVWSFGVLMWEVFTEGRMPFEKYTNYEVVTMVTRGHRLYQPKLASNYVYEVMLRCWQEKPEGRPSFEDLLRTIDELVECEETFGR

[5] = target: Cyclin-dependent kinase 5 (Homo sapiens, UniProt Q00535)
[6] = target: T3, Serine/threonine-protein kinase D3 (Homo sapiens, UniProt O94806)
T3 sequence (O94806 whole entry): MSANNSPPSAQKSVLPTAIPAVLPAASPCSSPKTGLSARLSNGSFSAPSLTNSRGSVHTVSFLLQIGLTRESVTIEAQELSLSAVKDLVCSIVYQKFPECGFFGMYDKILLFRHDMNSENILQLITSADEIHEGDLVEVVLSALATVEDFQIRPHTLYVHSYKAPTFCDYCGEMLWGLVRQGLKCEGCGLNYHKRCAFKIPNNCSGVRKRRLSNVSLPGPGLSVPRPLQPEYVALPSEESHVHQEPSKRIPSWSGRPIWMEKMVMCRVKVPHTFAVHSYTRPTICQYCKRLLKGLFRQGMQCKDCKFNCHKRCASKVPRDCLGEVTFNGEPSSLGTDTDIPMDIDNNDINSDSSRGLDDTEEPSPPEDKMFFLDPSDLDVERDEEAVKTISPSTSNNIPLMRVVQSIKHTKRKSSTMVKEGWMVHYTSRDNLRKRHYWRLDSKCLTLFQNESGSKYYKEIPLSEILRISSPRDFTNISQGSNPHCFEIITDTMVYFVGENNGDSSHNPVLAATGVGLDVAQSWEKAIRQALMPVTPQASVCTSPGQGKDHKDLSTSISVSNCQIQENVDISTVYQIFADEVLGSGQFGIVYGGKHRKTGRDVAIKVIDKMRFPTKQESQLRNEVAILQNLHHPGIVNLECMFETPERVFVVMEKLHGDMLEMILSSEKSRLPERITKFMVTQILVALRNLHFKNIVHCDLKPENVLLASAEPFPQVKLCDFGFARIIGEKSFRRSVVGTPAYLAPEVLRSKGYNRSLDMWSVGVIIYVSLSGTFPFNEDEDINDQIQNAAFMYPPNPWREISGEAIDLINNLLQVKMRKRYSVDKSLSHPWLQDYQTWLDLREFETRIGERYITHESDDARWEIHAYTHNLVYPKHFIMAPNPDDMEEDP

[7] = target: T4, Succinate--CoA ligase [ADP-forming] subunit beta, mitochondrial (Homo sapiens, UniProt Q9P2R7)
T4 sequence (Q9P2R7 whole entry): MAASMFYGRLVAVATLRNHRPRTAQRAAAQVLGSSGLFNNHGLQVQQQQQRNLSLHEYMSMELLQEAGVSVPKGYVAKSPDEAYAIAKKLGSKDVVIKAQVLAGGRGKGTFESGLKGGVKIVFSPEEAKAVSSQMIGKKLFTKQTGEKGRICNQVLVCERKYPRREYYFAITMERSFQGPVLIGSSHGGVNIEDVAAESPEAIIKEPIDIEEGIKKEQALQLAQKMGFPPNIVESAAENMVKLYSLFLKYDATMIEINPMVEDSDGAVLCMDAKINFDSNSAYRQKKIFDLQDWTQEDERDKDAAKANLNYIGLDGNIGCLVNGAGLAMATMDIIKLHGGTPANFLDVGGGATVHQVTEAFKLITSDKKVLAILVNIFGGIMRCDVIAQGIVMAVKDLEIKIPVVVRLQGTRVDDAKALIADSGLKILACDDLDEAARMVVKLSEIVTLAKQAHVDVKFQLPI

Cyclin-dependent kinase 5, sequence (Q00535 whole entry): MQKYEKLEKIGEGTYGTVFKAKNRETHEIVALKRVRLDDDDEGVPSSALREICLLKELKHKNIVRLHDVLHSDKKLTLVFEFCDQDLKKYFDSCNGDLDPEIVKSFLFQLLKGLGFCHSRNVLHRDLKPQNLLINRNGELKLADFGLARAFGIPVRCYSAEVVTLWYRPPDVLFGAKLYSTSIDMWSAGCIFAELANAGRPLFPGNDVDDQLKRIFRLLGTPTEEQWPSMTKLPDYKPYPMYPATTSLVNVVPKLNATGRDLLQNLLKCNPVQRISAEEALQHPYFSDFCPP
Wee1-like protein kinase, sequence (P30291 whole entry): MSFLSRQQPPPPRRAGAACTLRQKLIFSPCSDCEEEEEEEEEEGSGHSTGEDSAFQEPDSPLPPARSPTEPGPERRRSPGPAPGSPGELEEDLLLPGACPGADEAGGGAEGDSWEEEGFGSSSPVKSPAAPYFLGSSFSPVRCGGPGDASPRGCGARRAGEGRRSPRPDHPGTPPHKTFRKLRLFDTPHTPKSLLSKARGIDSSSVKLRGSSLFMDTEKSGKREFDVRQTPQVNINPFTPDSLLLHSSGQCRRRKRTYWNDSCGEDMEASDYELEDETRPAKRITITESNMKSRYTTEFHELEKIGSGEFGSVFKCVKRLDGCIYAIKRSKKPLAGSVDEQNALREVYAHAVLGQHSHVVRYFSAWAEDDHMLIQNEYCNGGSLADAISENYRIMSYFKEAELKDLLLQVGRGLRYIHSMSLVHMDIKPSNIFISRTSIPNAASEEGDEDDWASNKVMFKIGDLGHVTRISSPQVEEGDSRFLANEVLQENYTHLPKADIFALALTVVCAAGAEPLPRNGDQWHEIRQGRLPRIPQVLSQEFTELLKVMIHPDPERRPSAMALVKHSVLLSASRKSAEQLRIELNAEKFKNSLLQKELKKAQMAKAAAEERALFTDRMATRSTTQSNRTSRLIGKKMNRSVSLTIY
Casein kinase II subunit alpha', sequence (P19784 whole entry): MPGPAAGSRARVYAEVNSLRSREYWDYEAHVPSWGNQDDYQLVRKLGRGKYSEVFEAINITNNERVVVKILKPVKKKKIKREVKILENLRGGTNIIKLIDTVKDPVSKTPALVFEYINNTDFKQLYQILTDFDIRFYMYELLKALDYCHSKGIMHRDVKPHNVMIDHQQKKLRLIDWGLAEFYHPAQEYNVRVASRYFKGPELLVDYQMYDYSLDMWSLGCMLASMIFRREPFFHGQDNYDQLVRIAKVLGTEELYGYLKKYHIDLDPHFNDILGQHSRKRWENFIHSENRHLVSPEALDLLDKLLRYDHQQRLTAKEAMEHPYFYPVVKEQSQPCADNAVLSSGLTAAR

Row | SMILES | Kd [1] | Kd [2] | Kd [3] | Kd [4] | Kd [5] | Kd [6] | Kd [7]
1 | COc1cc2ncnc(Nc3ccc(O)cc3)c2cc1OC [WHI-P131] | > 30 µM (inactive) | > 30 µM (inactive) | > 30 µM (inactive) | > 30 µM (inactive) | > 30 µM (inactive) | > 30 µM (inactive) | > 30 µM (inactive)
2 | O[C@H]1CC[C@H](Nc2ncc3nc(Nc4c(F)cc(F)cc4F)n([C@H]4CCOC4)c3n2)CC1 [TANZISERTIB] | > 30 µM (inactive) | > 30 µM (inactive) | > 30 µM (inactive) | > 30 µM (inactive) | > 30 µM (inactive) | > 30 µM (inactive) | > 30 µM (inactive)
3 | Cc1ccc(C(=O)Nc2ccc(Oc3cc4cnn(C)c4cc3-c3cn[nH]c3)c(F)c2)c(=O)n1-c1ccc(F)cc1 [MERESTINIB] | > 30 µM (inactive) | > 30 µM (inactive) | > 30 µM (inactive) | > 30 µM (inactive) | > 30 µM (inactive) | > 30 µM (inactive) | > 30 µM (inactive)
4 | Cn1cc(-c2[nH]c3cc(NC(=O)[C@H](N)C4CCCCC4)cc4c3c2C=NNC4=O)cn1 | 4.86 µM (active) | > 30 µM (inactive) | 14.8 µM (active) | > 30 µM (inactive) | > 30 µM (inactive) | > 30 µM (inactive) | > 30 µM (inactive)
5 | C=CC(=O)Nc1cc(Nc2nccc(-c3cn(C)c4ccccc34)n2)c(OC)cc1N(C)CCN(C)C [OSIMERTINIB] | > 30 µM (inactive) | > 30 µM (inactive) | > 30 µM (inactive) | 0.321 µM (active) | > 30 µM (inactive) | > 30 µM (inactive) | > 30 µM (inactive)
6 | CN1CCN(c2nc(C3=C(c4c[nH]c5ccccc45)C(=O)NC3=O)c3ccccc3n2)CC1 [SOTRASTAURIN] | > 30 µM (inactive) | > 30 µM (inactive) | > 30 µM (inactive) | > 30 µM (inactive) | > 30 µM (inactive) | > 30 µM (inactive) | > 30 µM (inactive)

Further lines, results first:

Row | Kd [1] | Kd [2] | Kd [3] | Kd [4] | Kd [5] | Kd [6] | Kd [7] | SMILES
7 | > 30 µM (inactive) | > 30 µM (inactive) | > 30 µM (inactive) | > 30 µM (inactive) | > 30 µM (inactive) | > 30 µM (inactive) | > 30 µM (inactive) | CCOc1ccn(-c2ccc(F)cc2)c(=O)c1C(=O)Nc1ccc(Oc2ccnc(N)c2Cl)c(F)c1 [BMS-777607]
8 | > 30 µM (inactive) | > 30 µM (inactive) | 1.6 µM (active) | > 30 µM (inactive) | > 30 µM (inactive) | > 30 µM (inactive) | > 30 µM (inactive) | COc1cccc2cc(-c3nc([C@H]4CC[C@H](C(=O)O)CC4)n4ncnc(N)c34)[nH]c12 [OSI-027]
9 | > 30 µM (inactive) | > 30 µM (inactive) | > 30 µM (inactive) | > 30 µM (inactive) | > 30 µM (inactive) | > 30 µM (inactive) | > 30 µM (inactive) | Cc1cc(C(=O)Nc2cc(Oc3ccc4nc(NC(=O)C5CC5)cn4n3)ccc2C)n(C)n1 [TAK-593]
10 | > 30 µM (inactive) | > 30 µM (inactive) | > 30 µM (inactive) | > 30 µM (inactive) | > 30 µM (inactive) | > 30 µM (inactive) | > 30 µM (inactive) | NC(=O)c1ccc(N(C(N)=O)c2c(F)cccc2F)nc1-c1ccc(F)cc1F [VX-702]
